Measured values published in patent US6737240B1, “Methods of screening for a multi-drug resistance conferring peptide” (Rigel Pharmaceuticals, Inc., priority 1999, dated 2004).

System: MDR-1
Assay: MDR-1 immunostaining (UIC2-PE) and flow cytometry
Format: cell-based
Source text: HeLa cells infected with different retroviral vectors, stained with monoclonal antibody MDR1 (UIC2) PE conjugate and analyzed on a fluorescence-activated cell sorting (FACS) machine. […] The middle left panel is the 8.2 peptide control showing no effect upon MDR expression. […] The right hand panels verify that the selected clone RGP8.5.1 regulates MDR expression according to induced vector expression. Upper right is the HeLa control; middle right is vector expression in absence of presumed peptide expression; lower right is after derepression of peptide expression showing induced MDR expression correlating with GFP (peptide) expression.
The cells were stained with monoclonal antibody MDR1 (UIC2) PE conjugate and analyzed on FACS.
Immunostaining and flow cytometry. 2.5×10^5 Hela cells were washed once with PBS and then incubated with […] PBS buffer containing 0.1% BSA plus […] monoclonal MDR-1 antibody (UIC2)-Phycoerythrin (PE) conjugate (Immunotech) at room temperature for 15 minutes. Subsequently, the cells were washed once with 2 ml PBS buffer, resuspended in 0.5 ml PBS buffer and analyzed on FACS.

In the case of “MGEFLIVKVVWGRMVCWV-LVVRRFVLVIVLENSLSSNQGPP [RGP8.5]”, the “regulating the MDR expression levels as compared to MG132” value is reported as “more effective” and the “MDR-1 expression as a function of peptide expression (FACS)” value (HeLa cells, GFP as surrogate peptide expression indicator) is reported as “apparently regulated”.
